From patent US20040023994A1 (priority 2002, published 2004)
Where two headings read alike, the source gives them in different places. Marks after values point to notes of the source that are not given here.

Key:
A-498 cells = test: MTT cytotoxicity assay; format: cell-based, human
Experimental: (§1) Preliminary studies examining the in vitro cytotoxicity of cis-AVTP and trans-AVTG as compared to the parent drugs, were carried out using the 3-[4,5-dimethylthiazol-2-yl]-2,5-diphenyl tetrazolium bromide (MTT) cytotoxicity assay.

ACHN cells = test: MTT cytotoxicity assay; format: cell-based, human
Experimental: as §1

[1] = test system: all the cell lines included in the screen; test: cells
Experimental: cis-AVTP and trans-AVTG were tested in National Cancer Institute's (NCI) 60 cell lines derived from leukemia, melanoma, lung, kidney cancers. Most chemotherapeutic agents currently nd 6-TG, have been tested in this screen and a database he National Institutes of Health. The NCI assigned s-AVTP, and number NSC-722289 to trans-AVTG. tocol used for the cytotoxicity assessment in the NCI e from the National Institutes of Health. Briefly, tumor ma, lung, colon, brain, ovary, breast, prostate, and um containing 5% fetal bovine serum and 2 mM L-glutamine re plated in a 100 μL volume into 96 well microtiter 37° C. in humidified atmosphere supplemented with 5% ach cell line were fixed with trichloroacetic acid for f drug addition (Tz). The drugs, as 400-fold concentrated uted to twice the final maximum test concentration with entamicin. Additional four 10-fold dilutions were made us control. Aliquots (100 μl) of the drug solutions were 100 μl of medium, resulting in the required final drug the plates were incubated at 37° C. in humidified for additional 48 h. The assay was terminated by the w/v) trichloroacetic acid for adherent and suspension minutes at 4° C. The supernatant was discarded, the and air dried. A 100 μl aliquot of 0.4% (w/v) sulforhodamine B (SRB) solution in 1% acetic acid was added to each well, and the plates incubated for 10 minutes at room temperature. After staining, unbound dye was removed by washing five times with 1% acetic acid and the plates air dried. Bound stain was solubilized with 10 mM trizma base, and the absorbance read on a plate reader at a wavelength of 515 nm.
By using time zero (Tz), control growth (C), and test growth in the presence of drug at the five concentration levels (Ti), the percentage growth was calculated at each of the drug concentration levels. Percentage growth inhibition was calculated as:
[(Ti−Tz)/(C−Tz)]×100 for concentrations for which Ti>/=Tz
[(Ti−Tz)/Tz]×100 for concentrations for which Ti<Tz.
Three dose response parameters were calculated for each experimental agent. […] The TGI, the drug concentration resulting in total growth inhibition was calculated from Ti=Tz. The LC50 (the concentration of drug resulting in a 50% reduction in the measured protein at the end of the drug treatment as compared to that at the beginning) indicating a net loss of cells following treatment was calculated from [(Ti−Tz)/Tz]×100=−50. Values were calculated for each of these three parameters if the level of activity is reached; however, if the effect was not reached or was exceeded, the value for that parameter is expressed as greater or less than the maximum or minimum concentration tested.

Breast cell lines [2] = test system: Breast cell lines
Prostate cell lines [3] = test system: Prostate cell lines
Colon cell lines [4] = test system: Colon cell lines
Renal cell lines [5] = test system: Renal cell lines
Melanoma cell lines [6] = test system: Melanoma cell lines
NSCL cell lines [7] = test system: NSCL cell lines
CNS cell lines [8] = test system: CNS cell lines
Leukemia cell lines [9] = test system: Leukemia cell lines
Breast cell lines [10] = test: cells
Prostate cell lines [11] = test: cells
Colon cell lines [12] = test: cells
Renal cell lines [13] = test: cells
Melanoma cell lines [14] = test: cells
NSCL cell lines [15] = test: cells
CNS cell lines [16] = test: cells; conditions: Homo sapiens
Leukemia cell lines [17] = test: cells
M14 = conditions: for CC50: read-out: LC50
Ovarian cell lines = test: NCI anticancer screen, by tissue type; conditions: for GI50: read-out: median GI50; for CC50: read-out: median LC50
[18] = all cell lines of the NCI screen

CC(=O)C=CSc1ncnc2nc[nH]c12 [cis-AVTP, 6-(2-acetylvinylthio) purine]
IC50 (A-498 cells; Homo sapiens, A498, A-498, 24 h drug incubation): 107 ± 14.7 µM
IC50 (A-498 cells; Homo sapiens, A498, A-498, 48 h drug incubation): 24.6 ± 4 µM
IC50 (A-498 cells; Homo sapiens, A498, A-498, 72 h incubation, MTT): 8 ± 1.2 µM
IC50 (A-498 cells; Homo sapiens, A498, A-498, 96 h drug incubation): 5.5 ± 0.9 µM
IC50 (ACHN cells; Homo sapiens, 24 h drug incubation): 58.2 ± 1.7 µM
IC50 (ACHN cells; Homo sapiens, 48 h drug incubation): 8.7 ± 0.9 µM
IC50 (ACHN cells; Homo sapiens, 72 h incubation, MTT): 3.7 ± 0.7 µM
IC50 (ACHN cells; Homo sapiens, 96 h drug incubation): 3.5 ± 0.4 µM
GI50 [1]: < 2 µM
median TGI [1, 18]: 4.56 µM
CC50 ([1]; read-out: LC50): < 15 µM
GI50 ([1]; read-out: median GI50): 0.6 µM
CC50 ([1]; read-out: median LC50): 38.6 µM
median TGI (Breast cell lines [2]): 3.98 µM
median TGI (Prostate cell lines [3]): 7.09 µM
median TGI (Colon cell lines [4]): 4.42 µM
median TGI (Renal cell lines [5]): 2.67 µM
median TGI (Melanoma cell lines [6]): 3.24 µM
median TGI (NSCL cell lines [7]): 12.2 µM
median TGI (CNS cell lines [8]): 10.7 µM
median TGI (Leukemia cell lines [9]; Leukemia): 52.5^# μM
TGI (Leukemia cell lines [9]; leukemia cell lines CCRF-CEM, HL-60(TB), and RPMI-8226): < 5 µM
GI50 (Breast cell lines [10]; read-out: median GI50): 0.55 µM
CC50 (Breast cell lines [10]; read-out: median LC50): > 100 µM
GI50 (Prostate cell lines [11]; read-out: median GI50): 1.69 µM
CC50 (Prostate cell lines [11]; read-out: median LC50): 54.8 µM
GI50 (Colon cell lines [12]; read-out: median GI50): 1.13 µM
CC50 (Colon cell lines [12]; read-out: median LC50): 25.3 µM
GI50 (Renal cell lines [13]; read-out: median GI50): 0.49 µM
CC50 (Renal cell lines [13]; read-out: median LC50): 10.7 µM
GI50 (Melanoma cell lines [14]; read-out: median GI50): 0.48 µM
CC50 (Melanoma cell lines [14]; read-out: median LC50): 9.58 µM
GI50 (NSCL cell lines [15]; read-out: median GI50): 1.59 µM
CC50 (NSCL cell lines [15]; read-out: median LC50): 53.7 µM
GI50 (CNS cell lines [16]; read-out: median GI50): 1.69 µM
CC50 (CNS cell lines [16]; read-out: median LC50): 52.7 µM
GI50 (Leukemia cell lines [17]): < 0.5 µM
GI50 (Leukemia cell lines [17]; read-out: median GI50): 0.19 µM
CC50 (Leukemia cell lines [17]; read-out: median LC50): > 100 µM
GI50 (M14; Homo sapiens, M14, 48 h): 0.07 µM
CC50 (M14; Homo sapiens, M14, 48 h): 7.75 µM
TGI (M14; M14, Melanoma, 48 h): 1.89 µM
median TGI (Ovarian cell lines; Ovarian): 4.55 µM
GI50 (Ovarian cell lines): 0.91 µM
CC50 (Ovarian cell lines): 27.7 µM

CC(=O)C=CSc1nc(N)nc2nc[nH]c12 [trans-AVTG, 6-(2-acetylvinylthio) guanine]
IC50 (A-498 cells; A-498, 72 h incubation, MTT): 9.7 ± 2 µM
IC50 (ACHN cells; 72 h incubation, MTT): 4.1 ± 0.4 µM
median TGI [1, 18]: 12.9 µM
GI50 ([1]; read-out: median GI50, all cell lines of the NCI screen): 0.98 µM
CC50 ([1]; read-out: median LC50, all cell lines of the NCI screen): 76.2 µM
median TGI (Breast cell lines [2]): 11.6 µM
GI50 (Breast cell lines [2]; read-out: median GI50): 0.97 µM
CC50 (Breast cell lines [2]; read-out: median LC50): 88.1 µM
median TGI (Prostate cell lines [3]): 19.7 µM
GI50 (Prostate cell lines [3]; read-out: median GI50): 3.96 µM
CC50 (Prostate cell lines [3]; read-out: median LC50): 62.5 µM
median TGI (Colon cell lines [4]): 9.50 µM
GI50 (Colon cell lines [4]; read-out: median GI50): 1.43 µM
CC50 (Colon cell lines [4]; read-out: median LC50): 62.6 µM
median TGI (Renal cell lines [5]): 14.3 µM
GI50 (Renal cell lines [5]; read-out: median GI50): 0.98 µM
CC50 (Renal cell lines [5]; read-out: median LC50): 52.8 µM
median TGI (Melanoma cell lines [6]): 10.1 µM
GI50 (Melanoma cell lines [6]; read-out: median GI50): 0.73 µM
CC50 (Melanoma cell lines [6]; read-out: median LC50): 53.1 µM
median TGI (NSCL cell lines [7]): 19.4 µM
GI50 (NSCL cell lines [7]; read-out: median GI50): 2.52 µM
CC50 (NSCL cell lines [7]; read-out: median LC50): 61.5 µM
median TGI (CNS cell lines [8]): 32.4 µM
GI50 (CNS cell lines [8]; read-out: median GI50): 3.68 µM
CC50 (CNS cell lines [8]; read-out: median LC50): > 100 µM
median TGI (Leukemia cell lines [9]; Leukemia): 13.4 µM
GI50 (Leukemia cell lines [9]; read-out: median GI50, Leukemia): 0.37 µM
CC50 (Leukemia cell lines [9]; read-out: median LC50, Leukemia): > 100 µM
GI50 (M14; M14, Melanoma, 48 h): 0.45 µM
TGI (M14; M14, Melanoma, 48 h): 12.0 µM
CC50 (M14; M14, Melanoma, 48 h): 53.5 µM
median TGI (Ovarian cell lines; Ovarian): 3.41 µM
GI50 (Ovarian cell lines; Ovarian): 0.39 µM
CC50 (Ovarian cell lines; Ovarian): 51.4 µM
